Measured values: patent publication US6025365A, “Chelerythrine and radiation combined tumor therapy” (Arch Development Corp., priority 1997, dated 2000)

How the values were obtained:
WEHI-231 cells = experiment: Reactive oxygen species by dichlorodihydrofluorescein and FACS; format: cell-based, murine; details: 30 μM ceramide or 10 μM chelerythrine, 15 minutes; anti-IgM 2 hours
Description: FIGS. 8A-8C. Exogenous ceramide and PKC inhibition induce oxidative changes in WEHI-231 cells. WEHI-231 cells (1×10^6) were treated with anti-IgM antibodies for 2 hours (FIG. 8A), 30 μM exogenous ceramide for 15 minutes (FIG. 8B) or 10 μM chelerythrine for 15 minutes (FIG. 8C). The reactive oxygen species in the cells was then measured using dichlorodihydrofluorescein (DCHF-DA) and quantitated using FACS analysis. Histogram analysis of fluorescence is plotted as LOG function.
The mechanisms by which ceramide may mediate cell death is yet unknown. […] Since changes in oxidative status induced a wide range of cellular responses including growth and apoptosis in WEHI-231 and other lymphocytes, the inhibition of PKC and a resulting accumulation of ceramide were studied for their affect on the level of reactive oxygen species within the cell using the dye dichlorodihydrofluorescein and FACS analysis. […] While non-toxic oxidation may promote cell growth, intracellular reduction may lead to the activation of cysteine proteases which are proposed mediators of apoptosis.

WEHI-231 OE cells [1] = experiment: Radiation mediated apoptosis of WEHI-231 OE cells after C2-ceramide pre-treatment; format: cell-based, murine; details: C2-ceramide 30 minutes prior to 8 Gy, 24 hours
Description: FIG. 11A-1, FIG. 11A-2, and FIG. 11A-3. Exogenous ceramide can sensitize WEHI-231 OE cells to radiation mediated apoptosis. C2-ceramide (Cer) was added to 3×10^5 WEHI-231 OE cells 30 minutes prior to treatment with 8 Gy. Apoptosis was quantitated using propidium iodide staining and FACS analysis. Percent apoptotic cells are shown in gate R2 twenty-four hours following irradiation.
(§1) For viability staining, 2.5-3.5×10^5 cells were treated with varying concentrations of C2-ceramide, irradiation, or both.
(§2) In order to address the question of whether the resistance of the OE subline was due, in part, to alterations in ceramide metabolites or targets, three studies were performed. […] Both cell lines were equally susceptible to the effects of sphingosine kinase inhibition and the resulting […] in ceramide. […] Thus the radioresistance can be attributed to the lack of sphingomyelinase activation and the subsequent decreased ceramide production following irradiation.

SQ20-B cells [2] = experiment: Clonogenic survival / colony formation assay; format: cell-based, human; details: 20 μM C2-ceramide 30 minutes prior to x-ray
Description: FIG. 2. Chelerythrine chloride enhanced IR-mediated cell killing through divisional death. Clonogenic survival was measured following exposure to increasing concentrations of chelerythrine and ionizing radiation. Cells were plated at cell numbers between about 500 cells/plate and about 2000 cells/plate and treated with 0 μM, 0.5 μM, or 1.0 μM chelerythrine chloride for 30 minutes prior to irradiation. After 2 weeks the colonies were scored for survival if they were composed of more than 50 cells. Results represent the mean of three individual experiments with duplicate or triplicate determinants. Error bars represent +/- the standard error of the means (SEM).
FIG. 5C. […] Closed circles represent radiation alone; closed squares represenet addition of 20 μM C2-Ceramide 30 minutes prior to x-ray.
Exponentially growing SQ20B cultures were trypsinized using 0.05% trypsin+0.02% EDTA. Cells (100 to 50,000) were plated in 100 mm tissue culture dishes. Chelerythrine or C2-ceramide was added 4 hours after plating and irradiated for 30 minutes after the addition of chelerythrine or C2-ceramide. The cells were irradiated using a GE Maxitron 250 x-ray generator operating at 250 kV and 26 mA with a dose rate of 114 cGy/min. After 12 days the cells were fixed and stained with crystal violet following standard procedures (Chmura et al., 1996a; 1996b). Colonies of >50 cells were scored as survivors.
Clonogenic survival was measured following increasing concentrations of chelerythrine chloride alone (0.5-1.5 μM), IR alone (1-9 Gy), or the combined treatment of cells with chelerythrine and IR. […] At a concentration of 500 nM, chelerythrine decreased cell survival to about 80% of untreated control cells (about 20% cell death). The combined treatment of cells with 500 nM of chelerythrine 30 minutes prior to treatment with 3 Gy of radiation decreased cell survival to about 30% of untreated cells (about 70% cell death). […] Cell shrinkage and nuclear condensation, characteristic of apoptosis, were not observed at these concentrations of chelerythrine and IR.

WEHI-231 OE cells [3] = experiment: Viability by PI staining and FACS, WEHI-231 OE; format: cell-based, murine; details: 24 hours
Description: (§3) FIG. 11B. WEHI-231 JM and OE cells are equally sensitive to inhibition of sphingosine kinase and exogenous ceramide. Cells were treated with increasing concentrations of C2-ceramide or DL-threo-dihydrosphingosine--apotent inhibitor of sphingosine kinase. Viability was assayed using PI staining and FACS analysis 24 hours after treatment.
as §1, §2

WEHI-231 JM cells = experiment: Viability by PI staining and FACS, WEHI-231 JM; format: cell-based, murine; details: 24 hours
Description: as §3, §1, §2

[4] = test system: bcl-x WEHI-231, MG and WEHI-231 OE (JM) cells; experiment: Effect of protease inhibitors on chelerythrine induced apoptosis in apoptosis-resistant cell lines; format: cell-based; details: ZVAD 20 μM, even at doses >15 μM chelerythrine
Description: Using the procedures already described (Chmura, 1996; Chmura et al., 1996a; Chmura et al., 1996b), three different apoptosis-resistant cell lines were examined for their susceptibility to apoptosis induced by chelerythrine. The three cell lines used were bcl-x WEHI-231, which represents WEHI-231 cells that have been transfected with bcl-x and are highly resistant to radiation induce apoptosis, MG cells and the WEHI-231 OE (JM) cells previously described.
All three cell lines were treated with chelerythrine and x-irradiation as previously described (Chmura et al., 1996a; Chmura et al., 1996b) with the following modifications. Cells were pre-exposed to YVAD-cmk (100 μM), a protease inhibitor of the interleukin 1-b converting enzyme (ICE) subfamily or to ZVAD (20 μM), which inhibits the cpp32β family of proteases, for 30 minutes before being subjected to chelerythrine.

SQ20-B cells [5] = experiment: Apoptosis in SQ20-B (propidium iodide FACS, DAPI staining, DNA laddering); format: cell-based, human
Description: FIGS. 3A-3E. […] M1 defines the % of apoptotic cells as defined by (a) propidium iodide uptake of 1 log or more fluorescence and (b) a decrease in cell size of 50% or more. FL3-Height indicated the uptake of propidium by the cell. In FIG. 3A, M1=5%; FIG. 3B, M1=22%; FIG. 3C, M1=73%; FIG. 3D, M1=16%; FIG. 3E, M1=24%.
Cells undergoing apoptosis also shrink in size.
Cells, 5×10^5, were centrifuged at 1000 rpm and resuspended in approximately 100 μl cell culture media. The cell suspension was then mixed with 100 μl of DAPI (4',6-iamidino-2-phenylindole, Sigma D9542, 1 μg/ml in PBT (PBS+1% Triton X-100)). One drop of this mixture was placed on a microslide with a coverslip. The cells were viewed by fluorescence microscopy using an Olympus BX-40 microscope with a 100 Watt Mercury lamp, a 16 or 40 X Fluorite objective, N.A. 0.75, (Leco #1-UB527) and a UV filter cube (ex 330-385 nm, em 420 nm, wide band pass, Leco #U-M536). Images were photographed using an Optronics cooled low-light video camera (Leco #DEI-470TB) to which was attached a 2X coupler (Leco #HR200-CMT). The image was saved to a digital file at 72 dpi.
DNA degradation was assessed as previously described (Gottschalk et al., 1993; 1994). Briefly, following treatment in 100 mm plates or 24 well plates, cells were collected and lysed in 0.5 ml lysis buffer (0.6% SDS+10 mM EDTA, pH 7.0). […]

| Compound | reactive oxygen species (ROS) (WEHI-231 cells) | apoptotic response of irradiated cells (WEHI-231 OE cells [1]) | clonogenic survival of irradiated cultures (words) (SQ20-B cells [2]; listed as C2-Ceramide) | clonogenic survival of irradiated cultures (words) (SQ20-B cells [2]; listed as ceramide) | IC50 (WEHI-231 OE cells [3]) [nM] | IC50 (WEHI-231 JM cells) [nM] | inhibition of chelerythrine induced apoptosis [4] | apoptosis following combined IR and chelerythrine (2.5 μM), inhibition (SQ20-B cells [5]; zVAD-fmk 20 μM) | chelerythrine induced apoptosis, inhibition (SQ20-B cells [5]; zVAD-fmk with chelerythrine) |
| --- | --- | --- | --- | --- | --- | --- | --- | --- | --- |
| CCCCCCCCCCCCC/C=C/[C@@H](O)[C@H](CO)NC(C)=O [C2-ceramide] | reduced the ROS in the cells | restored the apoptotic response at 24 hours | decreased clonogenic survival | enhanced IR induced cell killing | 3000 | 3000 |  |  |  |
| zVAD-fmk |  |  |  |  |  |  | did block chelerythrine induced apoptosis | inhibited apoptosis | blocked chelerythrine induced apoptosis |
